Reference: patent US4358461A, “Antiallergic agent” (Takeda Chemical Industries, Ltd., priority 1980, dated 1982)

System: SRS-A
Experiment: Inhibitory action on the generation and release of SRS-A (sensitized guinea pig lung fragment; method of Orange and Moore, SRS-A assayed by method of Brocklehurst)
Type: cell-based, guinea pig (Hartley strain)
Conditions: egg albumin antigen
Source text: The action of the antiallergic agent of this invention to inhibit the production of SRS-A was investigated by the method of Orange and Moore [J. Immunol.

## baicalein phosphate disodium [BPS]
Concentration 10 (so in the source)
  Inhibitory action (percent inhibition of generation and release of SRS-A due to antigen-antibody interaction): 18.7 ± 6.6%
Concentration 100 (so in the source)
  Inhibitory action (percent inhibition of generation and release of SRS-A due to antigen-antibody interaction): 50.8 ± 10.7%
